Test results from patent US10501470B2, “Use of asarinin in preparation of medicines for treating various coughs” (priority 2017, dated 2019).

Test system: cough of guinea pigs induced by citric acid
Experiment: citric acid induced guinea pig cough model
Format: in vivo, Hartley guinea pigs
Details: for Cough Time (Number of Times) / Cough Incubation Period: once daily for 3 days, x±s, n=8; for Cough Time (Number of Times): cough times within 6 min after citric acid atomization; for Cough Incubation Period: within 6 min after citric acid atomization; for Antitussive Ratio: (N(blank control)-N(administration group))/N(blank control)x100%
Protocol: Experimental animals: 250-350 g of common level Hartley guinea pigs, including half males and half females are provided by Guangdong Medical Experimental Animal Center, wherein the number of the animal certificate is SCXK (Yue) 2008-0002.
Reagents and instruments: citric acid monohydrate (Guangzhou Chemical Reagent Factory, batch number: 20121001-2), wherein 0.8 M of citric acid solution is prepared by adding normal saline into citric acid monohydrate when in use; an animal noninvasive Buxco lung function detecting system (Buxco Company of America); an Aeroneb Pro atomizer (Aerogen (Ireland) Co., Ltd.); and a gavage needle (Guangdong Medical Experimental Animal Center).
A citric acid induced guinea pig cough model is adopted for efficacy evaluation. 112 Hartley guinea pigs are put in a 6 L plethysmograph of the animal noninvasive Buxco lung function detecting system one by one; the air velocity of a drift indicator is 2.5 L/min; 0.8 M of atomized aerosol of citric acid ultrapure aqueous solution is led for 1 min by the Aeroneb Pro atomizer; the average diameter of the atomized granules is […]; observation is carried out for 5 min; the sound of cough is recorded and amplified by an indoor microphone; sound waves are analyzed by Biosystem XA software; and computer software is used for processing sound data and recording cough situations. A trained observer observes whether a cough response exists or not, records the cough times within 6 min since atomization and selects the guinea pigs with more than 10 cough times as qualified animals for tests.
56 Hartley guinea pigs qualified by screening, including half males and half females, are randomly divided into 7 groups; 1 mL/100 g of normal saline is provided to a blank control group; a corresponding solvent (Tween-80 aqueous solution with 5% volume concentration) with equal volume is provided to a solvent group; 30 mg/kg of codeine phosphate with equal volume is provided to a positive drug group, asarinin (30 mg/kg, 60 mg/kg and 120 mg/kg of samples in embodiment 1) and total volatile oil of asarum (200 mg/kg of samples in embodiment 1) with equal volume are provided to each of administration groups; administration is carried out one time every day for successive 3 days. A citric acid atomization simulation test is carried out in the animal noninvasive Buxco lung function detecting system within 2 h after last administration (atomization conditions are described above); the cough times (N) and the cough incubation periods within 6 min are recorded; and the antitussive ratios of all the administration groups are calculated by a formula: antitussive ratio=(N(blank control)−N(administration group))/N(blank control)×100%.
The data are expressed by x±s, and a one-way analysis of variance is carried out on parameters of all the groups by IBM SPSS Statistics 19.0 software.

Row | Compound | Cough Time (Number of Times) (30 mg/kg) | Cough Incubation Period (30 mg/kg) [S] | Antitussive Ratio (30 mg/kg) [%] | Cough Time (Number of Times) (60 mg/kg) | Cough Incubation Period (60 mg/kg) [S] | Antitussive Ratio (60 mg/kg) [%] | Cough Time (Number of Times) (120 mg/kg) | Cough Incubation Period (120 mg/kg) [S] | Antitussive Ratio (120 mg/kg) [%]
1 | c1cc2c(cc1C1OCC3C1CO[C@H]3c1ccc3c(c1)OCO3)OCO2 (stereo in doubt) [Asarinin, 5,5′-[(1R,3aR,4S,6aR)-tetrahydro-1H,3H-furo[3,4-c]furan-1,4-diyl]bis-1,3-Benzodioxole] | 16.3 ± 2.2 Number of Times | 98.5 ± 9.5 | 39.2 | 13.2 ± 2.1 Number of Times | 94.2 ± 13.6 | 50.7 | 12.6 ± 1.9 Number of Times | 127.3 ± 24.8 | 53.0
2 | COc1ccc2c3c1O[C@H]1[C@@H](O)C=C[C@H]4[C@@H](C2)N(C)CC[C@@]341 [Codeine Phosphate, reference compound] | 12.0 ± 2.3 Number of Times | 130.0 ± 32.4 | 55.2 | – | – | – | – | – | –
